Consider two compounds from patent publication US20260248752A1, “Oral Care Product And Methods Of Use And Manufacture Thereof” (Colgate-Palmolive Company, priority 2019, published 2026).

What all share (type): cell-based, Streptococcus mutans
Test [1] deals with S. mutans. The experiment in a line: Growth inhibition of S. mutans in culture by neat solutions of xylitol and/or arginine. The following applies: 24 hours after administration of neat solutions, absence of added sucrose. As for the experimental part: The ability of xylitol to inhibit the growth of S. mutans is tested in combination with arginine in culture. Percent growth inhibition is measured at 24 hours after administration of the neat solutions listed in the below table.
Results in Table 2 are obtained in the absence of added sucrose.

The test system of test [2] is S. mutans biofilm. The experiment in a line: pH drop of S. mutans biofilm from glycolysis (total AUC of delta pH). As to conditions: for Total AUC of Δ pH: after 24 hours of exposure and addition of growth media, lower AUC = less pH reduction; for Δ (vs control) of total AUC of Δ pH: difference from control (no arginine or xylitol) AUC 29.5. The source says:
Such drops in pH can be harmful to the health of the oral cavity.

Test [3] relates to S. mutans biofilm. The experiment in a line: S. mutans biofilm formation by crystal violet staining (OD 590 nm). As to conditions: for S. mutans biofilm formation, crystal violet staining (OD 590 nm), mean: 24 hours of exposure. As for the experimental part:
Determining Biofilm Formation with varying amounts of Xylitol: In a separate experiment, simple solutions with only xylitol at varying concentrations, tested in combination with a control, are also tested to determine the minimum amount of xylitol needed to prevent S. mutans biofilm accretion in culture. It is determined that at least 5% xylitol is necessary to inhibit biofilm accretion in culture after 24 hours of exposure.

The subject of test [4] is planktonic S. mutans. In words: Minimum inhibitory concentration of xylitol, planktonic S. mutans growth (OD 610 nm). As to conditions: for growth of S. mutans, optical density (OD 610 nm), mean: 24 hours of exposure. As for the experimental part:
Determining Minimum Inhibitory Concentration (MIC) of Xylitol: In a separate experiment, simple solutions with only xylitol at varying concentrations, tested in combination with a control, are also tested to determine the minimum inhibitor concentration of xylitol needed to inhibit planktonic S. mutans growth in culture.

Setting [5] is: in culture after 24 hours of exposure.

Turning to `N=C(N)NCCC[C@H](N)C(=O)O` [1.5% arginine, arginine], in test [1], the “% growth inhibition relative to control” value was found to be 4.1%. Besides, in test [2], the “Total AUC of Δ pH” value came out at 28.9 and the “Δ (vs control) of total AUC of Δ pH” value is given as 0.6.

On to `OC[C@@H](O)[C@H](O)[C@@H](O)CO` [Xylitol], for which the “% growth inhibition relative to control” value in test [1] (listed as 1% xylitol) came to 17.9%; in test [1] (listed as 5% xylitol), 40.3%; in test [1] (listed as 10% xylitol) it was 45.6%. In addition, the “minimum amount of xylitol needed to prevent S. mutans biofilm accretion” value in test [3] (setting [5]) is “at least 5%”. The “S. mutans biofilm formation, crystal violet staining (OD 590 nm), mean” value in test [3] (xylitol 0.15625%) amounted to 0.327; in test [3] (xylitol 0.3125%) it was 0.338; in test [3] (xylitol 0.625%), 0.301; in test [3] (xylitol 1.25%), 0.254; in test [3] (xylitol 2.5%), 0.221; in test [3] (xylitol 5%), 0.136. Moreover, the “S. mutans biofilm formation, crystal violet staining (OD 590 nm), mean” value in test [3] (xylitol 10%) is on record as 0.122; in test [3] (xylitol 20%), 0.123; in test [3] (xylitol 40%) it was 0.109. In addition, the “Total AUC of Δ pH” value was 27.8 in test [2] (listed as 1% xylitol), 25.3 in test [2] (listed as 5% xylitol) and 24.0 in test [2] (listed as 10% xylitol). The “Δ (vs control) of total AUC of Δ pH” value in test [2] (listed as 1% xylitol) amounted to 1.7; in test [2] (listed as 5% xylitol), 4.2; in test [2] (listed as 10% xylitol) it was 5.5. Further, the “minimum inhibitory concentration of xylitol needed to inhibit planktonic S. mutans growth” value in test [4] (setting [5]) was “at least 10%”. The “growth of S. mutans, optical density (OD 610 nm), mean” value in test [4] (xylitol 0.15625%) is 0.256; in test [4] (xylitol 0.3125%), 0.268; in test [4] (xylitol 0.625%), 0.241; in test [4] (xylitol 1.25%), 0.188; in test [4] (xylitol 2.5%), 0.165; in test [4] (xylitol 5%), 0.114. The “growth of S. mutans, optical density (OD 610 nm), mean” value in test [4] (xylitol 10%) worked out at 0.097; in test [4] (xylitol 20%), 0.089; in test [4] (xylitol 40%), 0.071.
